In ChEMBL document CHEMBL1159034, “Emodin, a protein tyrosine kinase inhibitor from Polygonum cuspidatum” (J Nat Prod, 1992):
Values after ≈ are worked out from the molar mass of the structure shown. Active and inactive are the calls of the source. No cut-off for these calls is given here.

Tests used:
[1] = Inhibition of bovine thymus p56 LCK activity; parameters: species or system Bos taurus
[2] = organism: Bos taurus; assay: Inhibition of bovine thymus p56 LCK activity by noncompetitive inhibition assay
[3] = Inhibition of bovine thymus p56 LCK activity by competitive inhibition assay; parameters: species or system Bos taurus

| Structure (SMILES) | IC50 [1] [µg/mL] | Activity [2] | Ki [3] [µM] |
| --- | --- | --- | --- |
| Cc1cc(O)c2c(c1)C(=O)c1cc(O)cc(O[C@@H]3O[C@H](CO)[C@@H](O)[C@H](O)[C@H]3O)c1C2=O [EMODIN 8-O-BETA-D-GLUCOPYRANOSIDE] | > 800 |  |  |
| COc1cc(O)c2c(c1)C(=O)c1cc(C)cc(O)c1C2=O [PHYSCION] | > 800 |  |  |
| Cc1cc(O)c2c(c1)C(=O)c1cc(O)cc(O)c1C2=O [EMODIN] | 5 (≈ 18.5 µM) | Active | 13 |
